Entries after “also recorded” stand apart in the source; their conditions may differ. Where two headings read alike, the source gives them in different places. Residues, ends and D or L forms follow the SMILES beside them.
Assays:
Aβ channel = assay: Aβ channels incorporated into planar lipid bilayers, ionic current recording; assay type: biochemical; conditions: for blocking of the flow of ionic charges conducted by Aβ channels: His 41.5 μM, NAHIS compounds 16.6 μM (FIG. 5B); for blocking of Aβ channel current activity / reversibility of Aβ channel blockage after washing the chamber: planar lipid bilayer; for blocking of Aβ channel current activity: zero membrane potential; for time to reduce the flow of ionic charges through the membrane by 50%: 16.6 μM; for reversibility of Aβ channel blockage after washing the chamber: after washing off the blocker; for time to block the flow of ionic charges through Aβ channels: 41.5 μM (FIG. 5B left plot)
Protocol: Planar Lipid Bilayer Methodology: A suspension of palmitoyloleoyl phosphatidylserine and palmitoyloleoyl phosphatidylethanolamine, (Avanti, Alabaster, Ala.) 1:1, in η-decane was prepared. This suspension was applied to an orifice of about 100-120 μm in diameter with a Teflon film separating two compartments, 1.2 ml volume each. The ionic solutions in the compartments contained asymmetrical concentrations of CsCl (200cis/50trans mM) and symmetrical 0.5 mM CaCl2 and 5 mM K-HEPES, pH 7. The two ionic compartments were electrically connected to the input of a voltage clamp amplifier. Current was recorded using a patch clamp amplifier and data were stored on computer disk memory. Off-line analysis of the channel activity was carried out using the software package pClamp (Axon Instruments, Foster City, Calif.). Incorporation of Aβ peptide into the bilayer was obtained by adding an aliquot of proteoliposome (Aβ-liposome) suspension to the solution in the cis side of the planar lipid bilayer chamber and stirring.
Preparation of Proteoliposomes: Liposomes were prepared by hydration of air-dried palmitoyloleoyl phosphatidylserine (10 mg) with 1 M potassium aspartate, pH 7.0 (1 ml), followed by water sonication for 5 min. The liposome suspension (50 μl) was mixed with a stock aqueous solution of Aβ peptide (1 mg/ml, obtained from Bachem, Torrance, Calif. and from AnaSpec, San Jose, Calif.), followed by sonication.
Based on the theoretical model proposed by Durell et al. (1994), the predicted pore region of the Aβ channel is made of the hydrophilic structure composed of residues 1-16. The structure formed by a radial polymer of four to six Aβ subunits predicts that rings of His residues surround and form the path for the ions passing through the pore. […] This interaction will block the entrance to the Aβ pore, and consequently affect the flow of current through the Aβ channel. Therefore, various compounds of known His coordinating capacity were studied for their interaction with Aβ channels incorporated into planar lipid bilayers. No membrane potential difference was applied to the lipid bilayers, to avoid any disturbing effect the membrane potential may have on the channel activity and in the conformations of the channel.
Here the effectiveness of the His-coordinating and His-related compounds was studied in terms of the time required to block the Aβ channel currents. […] When Aβ channels are incorporated into artificial membranes, they form multi-conductance systems. This is manifested by frequently fluctuating conductance between specific levels. […] The results were analyzed by an alternative procedure that quantifies the total ionic current flowing through the Aβ channel incorporated into the artificial lipid membrane at any given time. For this purpose, we integrated the total ionic current flowing through the membrane and averaged the amount of charge conducted in consecutive time intervals of 8 msec duration.
Planar Lipid Bilayer Methodology and Preparation of Proteoliposomes: The experiments were performed as described previously except that the suspension of palmitoyloleoyl phosphatidylserine and palmitoyloleoyl phosphatidylethanolamine was applied to an orifice of about 80-100 μm in diameter with a Teflon film separating two compartments. In addition, the liposome suspension (50 μl) was mixed with a stock aqueous solution of Aβ40 (1 mg/ml; obtained from Invitrogen, Carlsbad, Calif.).

PC12 cells [1] = assay: Aβ-induced intracellular free calcium change in FURA-2AM loaded PC12 cells; assay type: cell-based, rat; conditions: Aβ 7.66 μM; for block of Aβ-induced intracellular calcium increase: compound 16.66 μM, 15 minute time course
Protocol: Intracellular Free Calcium measurements: Cells were plated on glass cover slips coated with poly-L-lysine and loaded with 2 μM FURA-2AM (Molecular Probes) calcium sensitive probe in incubation buffer (135 mM NaCl, 5 mM KCl, 2.5 mM CaCl2, 1.2 mM MgCl2, 10 mM glucose, 10 mM Hepes, pH 7.4). After 30 min of loading period, cells were treated with Aβ (7.66 μM). The time course of changes in the emission from FURA-2AM was observed using an inverted epi-fluorescence/phase contrast microscope equipped with a low-light level integrating CCD camera+microphotometer assembly (InCy I/P-2 Imaging & Photometry System, Intracellular Imaging INC.)
A 15 minute time course experiment was performed of the intracellular free calcium change in six FURA-2AM loaded PC 12 cells before and after the addition of Aβ (7.66 μM) and Aβ+His-related compound (16.66 μM).
Experiments in this Example were performed to determine if there was concentration dependence blockage of the Aβ-induced intracellular calcium response by NAHIS04. A time course of the intracellular free calcium change was taken in FURA-2AM loaded PC12 cells before and after the addition of Aβ (7.66 μM) to media containing different concentrations of NAHIS04. FIG. 11 illustrates that the concentration of the Aβ channel blocker is important and that the most efficient concentration of NAHIS04 for the blockage occurred at >5 μM.

[2] = system: PC12 cells, cortical and hippocampal neurons; assay: cells; conditions: for protection of cells from Aβ cytotoxicity: three days of incubation, XTT and LDH, three cell types; for protection of cells from Aβ cytotoxicity / concentration required for 50% protection (EC50): Aβ peptide 5 μM; for concentration required for 50% protection (EC50): three different types of cells, three days
Protocol: Cell culture: PC 12 cells, derived from a transplantable rat pheochromocytoma (ATCC # CRL 1721), were cultured in the recommended ATCC medium. Primary cultures of hippocampal and cortical neurons from […] rat brains were grown in neurobasal medium/B27 (GIBCO). For neurons preparation, pregnant rats were anesthetized and killed to extract the fetuses. For pain alleviation, the animals were anesthetized following recommendations in the 2000 Report of the American Veterinary Medical Association Panel on Euthanasia. Brains from the fetuses were dissected out and neuronal cell cultures prepared as in a previously described protocol (Simakova and Arispe, 2006).
Cell viability assays: The percentage of cells protected from Aβ-induced cell death by various treatments was evaluated by means of a colorimetric XTT assay (Cell Proliferation Kit II, Roche, Mannheim, Germany). The cytotoxicity was also directly measured by the release of lactate dehydrogenase (LDH) from the cytosol into the media (Cytotoxicity Detection Kit (LDH), Roche, Mannheim, Germany).
Cell viability was examined using two different assays. These were the colorimetric XTT assay that quantifies metabolically active cells, and an assay that measures the release of lactate dehydrogenase (LDH) from the cytosol into the media, which evaluates the cell membrane integrity. […] The left panels (A, C and E) show the results from the XTT assay expressed as a percentage of cytotoxicity, and the right panels (B, D and F) show the results from the measurements of LDH released from cells into the media expressed as a percentage of protection of cells.

PC12 cells [3] = assay: Protection of PC12 cells from Aβ cytotoxicity (LDH release / cell viability assay); assay type: cell-based
Protocol: Previous studies have shown that the native peptide fragments from the Aβ polypeptide, NA4 (SEQ ID NO: 3) and NA7 (SEQ ID NO: 4), are able to block Aβ channel activity and protect cells from Aβ cytotoxicity. […] The concentration required for 50% protection (half maximal effective concentration, EC50) for NAHIS04 was less than 1 μM (Panel B). It was also between 2-3 times less than the EC50 for either NA4 or NA7.

## N[C@@H](Cc1c[nH]cn1)C(=O)O [His, L-histidine, reference compound]
Aβ channel
  blocking of the flow of ionic charges conducted by Aβ channels: very slow-acting or had almost no channel-blocking capacity
  blocking of Aβ channel current activity: only affect the current peaks of 5.8 and 4.2 pA; also recorded: mildly reduces the Aβ channel activity

## CC(=O)N[C@@H](Cc1c[nH]cn1)C(=O)N[C@@H](Cc1c[nH]cn1)C(=O)N[C@@H](Cc1c[nH]cn1)C(=O)N[C@@H](Cc1c[nH]cn1)C(N)=O [NAHIS04, Ac-His-His-His-His-CONH2] (Ac-HHHH-NH2)
PC12 cells [1]; 0.83 to 6.64 μM tested
  most efficient concentration for blockage of the Aβ-induced intracellular calcium response: > 5 µM
[2]
  protection of cells from Aβ cytotoxicity: fully protected the three different types of cells against Aβ
  concentration required for 50% protection (EC50): below the micromolar levels
Aβ channel
  time to reduce the flow of ionic charges through the membrane by 50%: 15 s
  reversibility of Aβ channel blockage after washing the chamber: irreversible; also recorded: stayed fully blocked after the chamber was washed
  blocking of Aβ channel current activity: efficiently block the multiple conductances
Aβ channel; 16.66 μM
  effect on Aβ channel current peaks: removed all current peaks
  time to reduce the Aβ channel activity to occasional channel openings: 20 s
Aβ channel; NAHIS04 versus NAHIS02
  speed of 50% reduction of ionic charge flow compared to NAHIS02: eightfold
PC12 cells [3]
  protection of PC12 cells from Aβ cytotoxicity: showed better protection of the cells
PC12 cells [3]; PC12 cells, LDH release, three days of incubation, read-out: concentration required for 50% protection (EC50)
  EC50: < 1000 nM

## CC(C)[C@H](NC(=O)[C@H](CCC(=O)O)NC(=O)[C@H](Cc1ccc(O)cc1)NC(=O)CNC(=O)[C@@H](N)CO)C(=O)N[C@@H](Cc1c[nH]cn1)C(=O)N[C@@H](Cc1c[nH]cn1)C(=O)O [NA4, SGYEVHH, reference compound] (H-SGYEVHH-OH)
PC12 cells [3]; Example 5, LDH release, three days
  protection of PC12 cells from Aβ cytotoxicity: not as effective at blocking the Aβ channel as NAHIS04

## CC(=O)N[C@@H](CO)C(=O)NCC(=O)N[C@@H](Cc1ccc(O)cc1)C(=O)N[C@@H](CCC(=O)O)C(=O)N[C@H](C(=O)N[C@@H](Cc1c[nH]cn1)C(=O)N[C@@H](Cc1c[nH]cn1)C(N)=O)C(C)C [NA4mod, Ac-SGYEVHH-CONH2] (Ac-SGYEVHH-NH2)
PC12 cells [3]; Example 9, cell viability assay (FIG. 13)
  percent protection of PC12 cells from Aβ cytotoxicity: percent protection is similar to the protection shown by NAHIS04

## c1c[nH]cn1 [imidazole, reference compound]
[2]; Rattus norvegicus, PC-12, 72 h, read-out: concentration required for 50% protection (EC50)
  EC50: 2000 to 3000 nM
Aβ channel
  time to block the flow of ionic charges through Aβ channels: 30 s
  reversibility of Aβ channel blockage after washing the chamber: irreversibly block; also recorded: irreversible
  blocking of Aβ channel current activity: full block of the channel

## CC(=O)N[C@@H](Cc1cncn1C)C(=O)N[C@@H](Cc1cncn1C)C(N)=O [NAHIS02-(π-Met), Ac-His-π-Met-His-π-Met-CONH2]
PC12 cells [1]
  block of Aβ-induced intracellular calcium increase: has lost this ability
Aβ channel
  blocking of the flow of ionic charges conducted by Aβ channels: showed no blocking capacity
  blocking of Aβ channel current activity: did not affect the Aβ channel activity even at a fourfold higher concentration; also recorded: unable to block the Aβ channel activity even at a fourfold higher concentration
PC12 cells [3]; Example 6, LDH assay, Aβ40 for 24 hrs
  protection of PC12 cells against Aβ: did not protect the cells against Aβ

## [Cl][Ni][Cl] [Ni^2+, NiCl2, reference compound]
[2]; high concentrations
  toxicity of the compound to cells: cell-dependent toxicity at high concentrations
[2]
  protection of cells from Aβ cytotoxicity: fully protect the cells against Aβ cytotoxicity
Aβ channel
  time to block the flow of ionic charges through Aβ channels: 120 s
  reversibility of Aβ channel blockage after washing the chamber: irreversible
  blocking of Aβ channel current activity: full block of the channel
Aβ channel; listed as nickel
  reversibility of Aβ channel blockage after washing the chamber: irreversibly block

## CC(=O)N[C@@H](Cc1c[nH]cn1)C(=O)N[C@@H](Cc1c[nH]cn1)C(N)=O [NAHIS02, Ac-His-His-CONH2]
PC12 cells [1]
  block of Aβ-induced intracellular calcium increase: has the capacity to block Aβ-induced intracellular calcium increase
[2]
  concentration required for 50% protection (EC50): below the micromolar levels
Aβ channel
  time to reduce the flow of ionic charges through the membrane by 50%: 125 s
  reversibility of Aβ channel blockage after washing the chamber: reversed; also recorded: some recovery of channel activity
  blocking of Aβ channel current activity: efficiently block the multiple conductances
Aβ channel; 16.66 μM
  effect on Aβ channel current peaks: removed all current peaks
  time to reduce the Aβ channel activity to occasional channel openings: several minutes
  time to totally block the Aβ channel activity: less than three

## CC(=O)N[C@@H](Cc1c[nH]cn1)C(N)=O [NAHIS01, Ac-His-CONH2]
Aβ channel
  blocking of the flow of ionic charges conducted by Aβ channels: does not fully prevent the flow of ionic charges
  blocking of Aβ channel current activity: more effective at reducing all current peaks at much lower concentrations than unmodified His; also recorded: did not operate as a full channel blocker; also recorded: very efficient at blocking the Aβ ion channel
